In patent US20040151677A1, “1,3,5-Triazine sunscreens solubilized in mixed phthalimide eutectics” (SOCIETE L'OREAL, S.A., priority 2002, published 2004):

Columns and labels:
[1] = Comparative study of the solubility of a triazine derivative in different solvents; format: physicochemical; conditions: heated to 83° C., crystals observed after 24 hours and cooling to room temperature
Description: Comparative Study of the Solubility of a Triazine Derivative in Different Solvents The solubility of a triazine derivative (i.e., 2,4,6-tris(diisobutyl 4′-aminobenzalmalonate)-s-triazine) in different solvents was determined by means of the following test:
20 g of solvent are added, at room temperature, to 5 g of screening agent, the mixture thus obtained is brought to 83° C. using a water bath, the presence or absence of crystals is observed after 24 hours and cooling to room temperature.
The results obtained are collated in the table below (the chemical names are given in the CTFA nomenclature, 5th edition, 1993).

[2] = Test of in vitro efficacy: in vitro sun protection factor (Diffey method) of O/W emulsions; conditions: screening agent 5% in O/W support, mean of three SPF values
Description: Test of In Vitro Efficacy:
The method for evaluating the protection factor used is the in vitro method described by B. L. Diffey et al. in J. Soc. Cosmet. Chem. 40-127-133 (1989), which consists in determining the monochromatic protection factors every 5 nm in a wavelength range from 290 to 400 nm, and in calculating therefrom the sun protection factor according to a given mathematical equation.
Two screening agents of triazine type were formulated in a support of O/W type, at 5% by weight, in the solvent according to the invention and in a comparative solvent (Finsolv TN), and three SPF values, the mean and the standard deviation of which are collated in the table below, were determined for each formulation: […]

[3] = solvent 15% C12-C15 alkyl benzoate "Finsolv TN" (comparative)
[4] = solvent 15% n-butylphthalimide/isopropylphthalimide Pelemol BIP (invention)

Structure (SMILES)	SOLUBILITY OF THE TRIAZINE SCREENING AGENT ([1]; solvent: C8-C12 fatty acid triglycerides "Miglyol 812") [%]	SOLUBILITY OF THE TRIAZINE SCREENING AGENT ([1]; solvent: C12-C15 alkyl benzoate "Finsolv TN") [%]	SOLUBILITY OF THE TRIAZINE SCREENING AGENT ([1]; solvent: PPG-3 myristyl ether "Witconol APM") [%]	SOLUBILITY OF THE TRIAZINE SCREENING AGENT ([1]; solvent: n-butylphthalimide/isopropylphthalimide eutectic mixture Pelemol BIP (invention)) [%]	Mean SPF (Standard Deviation) [2, 3]	Mean SPF (Standard Deviation) [2, 4]
CC(C)COC(=O)C(=Cc1ccc(Nc2nc(Nc3ccc(C=C(C(=O)OCC(C)C)C(=O)OCC(C)C)cc3)nc(Nc3ccc(C=C(C(=O)OCC(C)C)C(=O)OCC(C)C)cc3)n2)cc1)C(=O)OCC(C)C [2,4,6-tris(diisobutyl 4′-aminobenzalmalonate)-s-triazine]	<10	<10	<10	40	4.1	8.0
CCCCC(CC)COc1ccc(-c2nc(-c3ccc(OC)cc3)nc(-c3ccc(OCC(CC)CCCC)cc3O)n2)c(O)c1 (centres unmarked) [Anisotriazine]	–	–	–	–	8.5	11.4
